Several values for one entry are separate records, joined by “and”; a condition that tells them apart may be missing. Identical values can stand only once. Like-named read-outs stand apart in the source and are kept apart here.
Key:
HIV-1 [1] = test: Single-cycle antiviral assay in PBMCs; assay type: cell-based
Protocol: To evaluate the ability of inhibitors to prevent HIV-1 infection in primary cells, human PBMCs obtained from Biological Specialty Corporation (Colmar, PA, USA) were used to assess antiviral activity. The proviral variants used for these studies were generated by site-directed mutagenesis in a proviral vector derived from NL43 [52] that encodes GFP (pNLG1-P2A-GFP). Virus was produced by transfection in 293T cells.
PBMCs were activated with phytohemagglutinin (PHA) at 5 μg/mL in Roswell Park Memorial Institute (RPMI) 1640 medium containing 10% heat-inactivated fetal bovine serum (FBS) for 2–3 days. Compound plates were prepared by dispensing compounds dissolved in DMSO into 384-well poly-d-lysine-coated plates (0.2 μL per well) using an Echo acoustic dispenser (Labcyte; San Jose, CA, USA). Each compound was tested in a 10-point serial 3-fold dilution (typical final concentrations: 5,000 to 0.1 nM). Controls included no inhibitor (DMSO only) and a combination of 3 antiviral agents, efavirenz, indinavir, and the integrase strand transfer inhibitor, L-002254051, at final concentrations of 4 μM each. PHA-activated human PBMCs were washed and resuspended in RPMI 1640 containing 10% NHS and 30 units per mL of interleukin-2 (IL-2) at 6 × 10^5 cells per mL. PBMCs were added to the compound plates and cultured for 24 h at 37 °C, 5% CO2, and 90% humidity. The appropriate HIV-1 variant was added to the PBMCs and cultured at 37 °C, 5% CO2, and 90% humidity for an additional 24 h.
HIV-1–infected cells were quantified by counting the number of GFP cells in each well using an Acumen eX3 scanner (SPT Labtech; Melbourn, UK).

HIV-1 [2] = test: microbe, parasite or virus in culture; conditions: Human immunodeficiency virus 1, PBMC
Protocol: IC50 values were determined, and a persistence ratio was calculated for each compound. GFP, green fluorescent protein; hpi, hours post-infection; IC50, half maximal inhibitory concentration.
Assay media in each well were then evacuated and the cells resuspended using the gentle setting on the BlueWasher (BlueCatBio; Lebanon, NH, USA). Centrifugation and wash steps were repeated to ensure removal of extracellular compound.
MT4-GFP cells were infected with WT R8 virus, and PBMCs were infected with pNLG1-P2A-GFP. […] IC50 values were determined by nonlinear 4-parameter curve fitting of the data. A persistence ratio was calculated for each compound by dividing the IC50 from variable B (IC50B) by the IC50 from variable A (IC50A).

HIV-1 subtypes = conditions: for Fold-Change in IC50 vs CNDO control virus: listed as MK-8527
Protocol: Compounds were evaluated for antiviral activity against a panel of clinical isolates representing multiple HIV-1 subtypes at Monogram Biosciences (South San Francisco, CA, USA). The isolates were selected based on an absence of resistance-associated mutations in RT and each was constructed as a pooled resistance test vector designed to preserve the quasispecies present in the initial clinical isolate.

HIV-1 [3] = test: Multicycle antiviral assay in MT4-GFP cells; assay type: cell-based; conditions: 10% NHS
Protocol: Compounds were evaluated for their ability to prevent HIV-1 infection in MT4-GFP cells as described in Diamond, and colleagues. HIV-1 replication was monitored using the MT4-gag-GFP clone D3, and MT4 cells with a GFP reporter gene, the expression of which is dependent on the HIV-1 expressed proteins tat and rev. […] Proviral variants used for these studies were generated by site-directed mutagenesis in the WT R8 proviral plasmid. Virus was produced by transfection in 293T cells.
Briefly, MT4-GFP cells were cultured overnight with the appropriate HIV-1 variant at an approximate multiplicity of infection of 0.01. After approximately 19 h of infection, the cells were washed and resuspended in assay media containing 10% normal human serum (NHS) before being added to 384-well compound plates containing 10-point serial 3-fold dilutions of compound. Controls included no inhibitor (dimethyl sulfoxide [DMSO] only) and a combination of 3 antiviral agents, efavirenz, indinavir, and an integrase strand transfer inhibitor, L-002254051, at final concentrations of 4 µM each. The infected or treated cells were cultured at 37 °C, 5% CO2, and 90% humidity until evaluation of infection was conducted at approximately 48 and 72 h post-infection by counting the number of GFP cells in each well using an Acumen eX3 scanner (SPT Labtech; Melbourn, UK). The reproductive ratio, R, was calculated by dividing the number of infected cells at 72 h by the number at 48 h post-infection. The percentage inhibition caused by a test compound was calculated by the following formula:
inhibition = [1−(Rtest compound − Rpositive control)]/(RDMSO only − Rpositive control) × 100%\]
The dose–response curves of each test compound were plotted as percentage inhibition versus the test concentration.

HIV RT = biological target: T1, HIV RT (Human immunodeficiency virus type 1 group M subtype B, UniProt P04585); test: HIV-RT primer extension assay (chain termination); assay type: biochemical; conditions: 1 µM each dNTP
T1 construct: HIV RT (final concentration, 1,200 nM)
Protocol: The reaction protocol was adapted from previous work. Primers and template used for this assay are described in Fig 8A.
All reagent stocks were in a base assay buffer consisting of 50 mM Tris pH 7.5 and 50 mM NaCl in nuclease-free water. […] Samples were then heated to 95 °C for 10 min prior to storage at −20 °C until being resolved by polyacrylamide gel electrophoresis with 7 M urea.

C#C[C@]1(CO)O[C@@H](n2ccc3c(N)nc(Cl)nc32)C[C@@H]1O [Compound 12, (2R,3S,5R)-5-(4-amino-2-chloro-7H-pyrrolo[2,3-d]pyrimidin-7-yl)-2-ethynyl-2-(hydroxymethyl)tetrahydrofuran-3-ol]
PBMC IC50 (HIV-1 [1]; HIV-1, single-cycle assay, human PBMCs, 10% NHS): subnanomolar potency | IC50 (HIV-1 [1]; Human immunodeficiency virus 1, PBMC, read-out: PBMC IC50, HIV-1, single-cycle assay, human PBMCs, 10% NHS): 0.2 nM | IC50 (HIV-1 [1]; read-out: PBMC IC50, HIV-1, single-cycle assay, human PBMCs, 10% NHS, listed as MK-8527): 0.21 ± 0.09 nM | IC50 (HIV-1 [2]; 48 h, read-out: Persistence assay IC50B, PBMCs): 18.1 ± 4.8 nM | IC50 (HIV-1 [2]; read-out: Persistence assay IC50A, PBMCs): 1.2 ± 0.2 nM | Geometric Mean fold-change (HIV-1 subtypes; WT Subtype A): 1.0 | Geometric Mean fold-change (HIV-1 subtypes; WT Subtype A1): 0.9 | Fold-Change in IC50 vs CNDO control virus (HIV-1 subtypes; WT Subtype A1 clinical isolates): 0.96 and 0.93 and 0.73 | Geometric Mean fold-change (HIV-1 subtypes; WT Subtype AE): 0.6 | Geometric Mean fold-change (HIV-1 subtypes; WT Subtype AG): 1.0 | Geometric Mean fold-change (HIV-1 subtypes; WT Subtype B): 0.9 | Geometric Mean fold-change (HIV-1 subtypes; WT Subtype BF): 0.8 | Geometric Mean fold-change (HIV-1 subtypes; WT Subtype C): 1.0 | Geometric Mean fold-change (HIV-1 subtypes; WT Subtype D): 0.7 | Geometric Mean fold-change (HIV-1 subtypes; WT Subtype F1): 0.8 | Geometric Mean fold-change (HIV-1 subtypes; WT Subtype G): 0.752 | Geometric Mean fold-change (HIV-1 subtypes; WT Subtype H): 0.55 | Fold-Change in IC50 vs CNDO control virus (HIV-1 subtypes; WT Subtype H clinical isolates): 0.72 and 0.42 | IC50 (HIV-1 [3]; Human immunodeficiency virus 1, WT HIV-1, multicycle assay): 3.4 nM | MT4-GFP IC50 (HIV-1 [3]; WT HIV-1, multicycle assay): single-digit nanomolar potency | IC50 (HIV-1 [3]; WT HIV-1, multicycle assay, listed as MK-8527): 3.37 ± 1 nM

C#C[C@]1(COP(=O)(O)OP(=O)(O)OP(=O)(O)O)O[C@@H](n2ccc3c(N)nc(Cl)nc32)C[C@@H]1O [MK-8527-TP]
Chain termination mechanism (ICT/DCT) (HIV RT): both ICT and DCT occurred

Source: publication PMC12380353, “MK-8527 is a novel inhibitor of HIV-1 reverse transcriptase translocation with potential for extended-duration dosing” (PLOS Biology, 2025)
